Assay results published in ChEMBL document CHEMBL2331193, “Structure-based fragment screening is demonstrated to be a practical lead discovery method for a representative G-protein-coupled receptor” (J Med Chem, 2013).

Biological target: Beta-1 adrenergic receptor (Homo sapiens, UniProt P08588)
Test: Binding affinity to beta1 adrenergic receptor (unknown origin)

Sequence of Beta-1 adrenergic receptor (P08588 whole entry): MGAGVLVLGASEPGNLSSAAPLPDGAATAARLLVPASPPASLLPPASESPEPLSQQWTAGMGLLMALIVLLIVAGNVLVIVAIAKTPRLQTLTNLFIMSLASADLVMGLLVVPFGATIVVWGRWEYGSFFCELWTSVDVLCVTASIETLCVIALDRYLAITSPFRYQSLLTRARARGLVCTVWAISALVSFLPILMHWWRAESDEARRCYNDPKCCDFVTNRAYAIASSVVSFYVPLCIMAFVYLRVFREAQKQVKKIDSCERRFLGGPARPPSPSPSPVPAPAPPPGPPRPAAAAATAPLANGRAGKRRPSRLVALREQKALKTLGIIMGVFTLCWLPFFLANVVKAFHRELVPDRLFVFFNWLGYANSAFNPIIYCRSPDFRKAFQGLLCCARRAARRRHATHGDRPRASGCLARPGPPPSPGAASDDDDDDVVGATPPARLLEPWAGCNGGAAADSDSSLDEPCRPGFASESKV

**Q.** Which Ki does the source give for `Cc1cc(N2CCNCC2)nc2ccccc12` here?
**A.** The Ki was 0.22 µM.
